Measurements published in ChEMBL document CHEMBL3044728, “Synthesis and biological activity of new (E)-alpha-(Methoxyimino)benzeneacetate derivatives containing a substituted pyrazole ring” (2010).

Legend:
Format in all cases: functional
Pyricularia oryzae [1] = assay: Antifungal activity against Magnaporthe oryzae assessed as inhibition at 25 mg/L relative to control
Blumeria graminis [2] = assay: Antifungal activity against Blumeria graminis assessed as inhibition at 1.56 mg/L relative to control
[3] = system: Pseudoperonospora cubensis; assay: Antifungal activity against Pseudoperonospora cubensis assessed as inhibition at 6.25 mg/L relative to control
[4] = system: Pseudoperonospora cubensis; assay: Antifungal activity against Pseudoperonospora cubensis assessed as inhibition at 400 mg/L relative to control
Blumeria graminis [5] = assay: Antifungal activity against Blumeria graminis assessed as inhibition at 6.25 mg/L relative to control
[6] = system: Pseudoperonospora cubensis; assay: Antifungal activity against Pseudoperonospora cubensis assessed as inhibition at 25 mg/L relative to control
Phytophthora infestans [7] = assay: Antifungal activity against Phytophthora infestans assessed as inhibition at 25 mg/L relative to control
Blumeria graminis [8] = assay: Antifungal activity against Blumeria graminis assessed as inhibition at 400 mg/L relative to control
Phytophthora infestans [9] = assay: Antifungal activity against Phytophthora infestans assessed as inhibition at 0.92 mg/L relative to control
Pyricularia oryzae [10] = assay: Antifungal activity against Magnaporthe oryzae assessed as inhibition at 0.92 mg/L relative to control
Leucania = assay: Insecticidal activity against Leucania venalba at 600 mg/L relative to control
Myzus persicae = assay: Insecticidal activity against Myzus persicae (green peach aphid) at 600 mg/L relative to control
Tetranychus cinnabarinus = assay: Acaricidal activity against Tetranychus cinnabarinus (carmine spider mite) at 600 mg/L relative to control
Culex pipiens pallens = assay: Insecticidal activity against Culex pipiens pallens (mosquito) at 600 mg/L relative to control

Row | SMILES | inhibition at 25 µg/mL (Pyricularia oryzae [1]) [%] | inhibition at 1.56 µg/mL (Blumeria graminis [2]) [%] | inhibition at 6.25 µg/mL [3] [%] | inhibition at 400 µg/mL [4] [%] | inhibition at 6.25 µg/mL (Blumeria graminis [5]) [%] | inhibition at 25 µg/mL [6] [%] | inhibition at 25 µg/mL (Phytophthora infestans [7]) [%] | inhibition at 400 µg/mL (Blumeria graminis [8]) [%] | inhibition at 0.92 µg/mL (Phytophthora infestans [9]) [%] | inhibition at 0.92 µg/mL (Pyricularia oryzae [10]) [%] | Activity (Leucania) [%] | Activity (Myzus persicae) [%] | Activity (Tetranychus cinnabarinus) [%] | Activity (Culex pipiens pallens) [%]
1 | CO/N=C(/C(=O)OC)c1ccccc1COc1c(C)c(-c2ccc(Cl)cc2)nn1C | 50 | 98 | 100 | 100 | 100 | 100 | 100 | 100 | 100 | – | – | – | – | –
2 | CNC(=O)/C(=N/OC)c1ccccc1COc1c(C)c(-c2ccc(OCC(F)(F)F)cc2)nn1C | 80 | 40 | 30 | 100 | 100 | 80 | 100 | 100 | 50 | 50 | – | – | – | –
3 | CNC(=O)/C(=N/OC)c1ccccc1COc1c(C)c(-c2ccc(OC)cc2)nn1C | 100 | 75 | 55 | 98 | 100 | 85 | 80 | 100 | 50 | 50 | 100 | – | – | –
4 | CNC(=O)/C(=N/OC)c1ccccc1COc1c(C)c(-c2ccc(C(C)(C)C)cc2)nn1C | 100 | 0 | – | 95 | 0 | 20 | 100 | 100 | 40 | 100 | – | – | – | –
5 | CNC(=O)/C(=N/OC)c1ccccc1COc1c(C)c(-c2cc(C)ccc2C)nn1C | 100 | 0 | 50 | 100 | 40 | 100 | 100 | 100 | 100 | 100 | – | 100 | – | –
6 | CNC(=O)/C(=N/OC)c1ccccc1COc1c(C)c(-c2ccc(C)c(C)c2)nn1C | 100 | 55 | 40 | 100 | 100 | 100 | 100 | 100 | 100 | 80 | – | – | – | –
7 | CNC(=O)/C(=N/OC)c1ccccc1COc1c(C)c(-c2ccc(C)cc2C)nn1C | 100 | 65 | 100 | 100 | 100 | 100 | 100 | 100 | 100 | 50 | – | – | – | –
8 | CNC(=O)/C(=N/OC)c1ccccc1COc1cc(-c2ccccc2OC)nn1C | 100 | 45 | – | 75 | 100 | 10 | 0 | 100 | – | 0 | – | 100 | – | –
9 | CNC(=O)/C(=N/OC)c1ccccc1COc1cc(-c2ccc(C)cc2C)nn1C | 100 | 30 | 70 | 100 | 100 | 100 | 100 | 100 | 100 | 50 | – | – | – | –
10 | CNC(=O)/C(=N/OC)c1ccccc1COc1cc(-c2ccc(C)c(C)c2)nn1C | 100 | 40 | 85 | 100 | 100 | 100 | 100 | 100 | 80 | 50 | – | 100 | 100 | –
11 | CNC(=O)/C(=N/OC)c1ccccc1COc1cc(-c2ccc(Cl)cc2)nn1C | 0 | 0 | 60 | 100 | 40 | 100 | – | 100 | – | – | – | 100 | – | 100
12 | CNC(=O)/C(=N/OC)c1ccccc1COc1cc(-c2ccccc2)nn1C | 0 | – | 70 | 100 | – | 100 | – | 50 | – | – | – | – | – | –
13 | CCOc1ccc(-c2nn(C)c(OCc3ccccc3/C(=N\OC)C(=O)OC)c2C)cc1 | 100 | 50 | – | 100 | 100 | 40 | 100 | 100 | 50 | 50 | – | – | 100 | –
14 | CO/N=C(/C(=O)OC)c1ccccc1COc1c(C)c(-c2ccc(OC)cc2)nn1C | 100 | 30 | 15 | 100 | 85 | 55 | 100 | 100 | 50 | 80 | – | – | – | –
15 | CCc1ccc(-c2nn(C)c(OCc3ccccc3/C(=N\OC)C(=O)OC)c2C)cc1 | 50 | 100 | 50 | 98 | 100 | 70 | 100 | 100 | 80 | – | – | – | – | –
16 | CO/N=C(/C(=O)OC)c1ccccc1COc1c(C)c(-c2ccc(C)cc2C)nn1C | 100 | 75 | 98 | 100 | 100 | 100 | 100 | 100 | 100 | 80 | – | – | – | –
17 | CO/N=C(/C(=O)OC)c1ccccc1COc1c(C)c(-c2ccc(C)c(C)c2)nn1C | 100 | 60 | 70 | 100 | 100 | 75 | 100 | 100 | 100 | 80 | – | – | – | –
18 | CO/N=C(/C(=O)OC)c1ccccc1COc1cc(-c2ccccc2Cl)nn1C | 100 | 45 | – | 80 | 75 | 30 | 100 | 100 | 0 | 0 | – | – | – | –
19 | CO/N=C(/C(=O)OC)c1ccccc1COc1cc(-c2ccc(C)cc2C)nn1C | 100 | – | 65 | 95 | 65 | 90 | 100 | 100 | 100 | 0 | – | 100 | – | –
20 | CO/N=C(/C(=O)OC)c1ccccc1COc1cc(-c2ccc(C)c(C)c2)nn1C | 100 | – | – | 98 | 30 | 40 | 100 | 100 | 80 | 50 | – | 100 | 100 | –
21 | CO/N=C(/C(=O)OC)c1ccccc1COc1cc(-c2ccc(Cl)cc2)nn1C | 80 | – | 80 | 100 | 40 | 90 | 80 | 100 | 50 | – | – | – | – | 100
22 | CO/N=C(/C(=O)OC)c1ccccc1COc1cc(-c2ccccc2)nn1C | 0 | – | – | 95 | – | 70 | 0 | 70 | – | – | – | 100 | – | –
23 | CO/C=C(/C(=O)OC)c1ccccc1Oc1cc(Oc2ccccc2C#N)ncn1 [AZOXYSTROBIN] | 100 | 60 | 95 | 100 | 100 | 100 | – | 100 | – | – | – | – | – | –
24 | CO/N=C(/C(=O)OC)c1ccccc1COc1ccccc1C [KRESOXIM-METHYL] | 100 | 100 | 0 | – | 100 | 35 | 100 | 100 | – | – | – | – | – | –
